Data as given in the NIST ThermoML archive (doi:10.1021/acs.jced.9b00752).
± gives the expanded uncertainty stated by the source.

Assay: mn = molality of the nth substance listed, in mol/kg
Conditions: 100 kPa, Liquid, Vibrating tube method

O=C(O)[C@@H]1CCCN1 [L-proline] + O
mass density [kg/m3]
Conditions	273.65 K	274.15 K	274.65 K	275.15 K	275.65 K	276.15 K	276.65 K	277.15 K	277.65 K	278.15 K
m1 = 0.0132	1000.34 ± 0.11	1000.37 ± 0.11	1000.39 ± 0.11	1000.4 ± 0.11	1000.41 ± 0.11	1000.42 ± 0.11	1000.43 ± 0.11	1000.43 ± 0.11	1000.43 ± 0.11	1000.42 ± 0.11
m1 = 0.0326	1001.02 ± 0.11	1001.05 ± 0.11	1001.07 ± 0.11	1001.08 ± 0.11	1001.09 ± 0.11	1001.1 ± 0.11	1001.11 ± 0.11	1001.11 ± 0.11	1001.1 ± 0.11	1001.09 ± 0.11
m1 = 0.0542	1001.77 ± 0.11	1001.79 ± 0.11	1001.81 ± 0.11	1001.82 ± 0.11	1001.84 ± 0.11	1001.84 ± 0.11	1001.84 ± 0.11	1001.85 ± 0.11	1001.84 ± 0.11	1001.83 ± 0.11
m1 = 0.0692	1002.29 ± 0.11	1002.31 ± 0.11	1002.32 ± 0.11	1002.34 ± 0.11	1002.34 ± 0.11	1002.35 ± 0.11	1002.35 ± 0.11	1002.35 ± 0.11	1002.34 ± 0.11	1002.33 ± 0.11
m1 = 0.0808	1002.69 ± 0.11	1002.71 ± 0.11	1002.73 ± 0.11	1002.74 ± 0.11	1002.75 ± 0.11	1002.75 ± 0.11	1002.75 ± 0.11	1002.75 ± 0.11	1002.74 ± 0.11	1002.73 ± 0.11
m1 = 0.1014	1003.41 ± 0.11	1003.43 ± 0.11	1003.45 ± 0.11	1003.46 ± 0.11	1003.46 ± 0.11	1003.46 ± 0.11	1003.46 ± 0.11	1003.46 ± 0.11	1003.45 ± 0.11	1003.43 ± 0.11
m1 = 0.1196	1004.09 ± 0.11	1004.11 ± 0.11	1004.12 ± 0.11	1004.13 ± 0.11	1004.13 ± 0.11	1004.13 ± 0.11	1004.13 ± 0.11	1004.13 ± 0.11	1004.12 ± 0.11	1004.1 ± 0.11
m1 = 0.1326	1004.5 ± 0.11	1004.52 ± 0.11	1004.53 ± 0.11	1004.54 ± 0.11	1004.54 ± 0.11	1004.54 ± 0.11	1004.54 ± 0.11	1004.54 ± 0.11	1004.52 ± 0.11	1004.51 ± 0.11
m1 = 0.1555	1005.27 ± 0.15	1005.29 ± 0.15	1005.3 ± 0.15	1005.3 ± 0.15	1005.3 ± 0.15	1005.3 ± 0.15	1005.3 ± 0.15	1005.29 ± 0.15	1005.28 ± 0.15	1005.26 ± 0.15
m1 = 0.1568	1005.41 ± 0.15	1005.42 ± 0.15	1005.43 ± 0.15	1005.44 ± 0.15	1005.44 ± 0.15	1005.44 ± 0.15	1005.43 ± 0.15	1005.43 ± 0.15	1005.41 ± 0.15	1005.39 ± 0.15
m1 = 0.1835	1006.23 ± 0.11	1006.25 ± 0.11	1006.25 ± 0.11	1006.26 ± 0.11	1006.26 ± 0.11	1006.25 ± 0.11	1006.25 ± 0.11	1006.24 ± 0.11	1006.22 ± 0.11	1006.2 ± 0.11
m1 = 0.2076	1007.04 ± 0.11	1007.05 ± 0.11	1007.05 ± 0.11	1007.05 ± 0.11	1007.05 ± 0.11	1007.04 ± 0.11	1007.04 ± 0.11	1007.03 ± 0.11	1007.01 ± 0.11	1006.99 ± 0.11
m1 = 0.2212	1007.72 ± 0.12	1007.73 ± 0.12	1007.73 ± 0.12	1007.73 ± 0.12	1007.72 ± 0.12	1007.72 ± 0.12	1007.71 ± 0.12	1007.7 ± 0.12	1007.68 ± 0.12	1007.66 ± 0.12
